# Tests used:
# [1] = test system: Cytokine 12 Panel; assay: Cytokine 12 panel, oral daily dosing with 3 mg Fibrinopeptide A (Table 5); format: in vivo, human; parameters: IL-10 / TNF-α / IL-2 / IL-12: unit not given here; settings: for IFN-γ / IL-4 / IL-5 / IL-6 / IL-8 / IL-13: nl: 0-5; for IL-12: nl: 0-6; for IL-2: nl: 0-12; for IL-10: nl: 0-18; for TNF-α: nl: 0-22; for IL-1β: nl: 0-36; for IL-2R: nl: 0-1033
# Text: [table] […] One of these patients was the same patient previously utilized, while the other was relatively neve to any previous Fibrinopeptide A treatment. The patient had taken two doses orally approximately seven weeks prior to this treatment, no lab work had been obtained with this prior dosing. […] Note the response in the IL-10 and IL-1b in this patient similar to the other patients. However, this patient return back toward baseline values much more rapidly than the other patients, accentuating the variability expected in this type of response from one patient to another. This also validates the efficacy of oral administration to achieve an anti-inflammatory/immunomodulatory benefit.
# [2] = test system: Cytokine 12 Panel; assay: Cytokine 12 panels following oral administration of FPA (Table 6); format: in vivo, human; parameters: IL-12 / IL-10 / TNF-α / IL-2: unit not given here; settings: for IFN-γ / IL-4 / IL-5 / IL-6 / IL-8 / IL-13: nl: 0-5; for IL-12: nl: 0-6; for IL-2: nl: 0-12; for IL-10: nl: 0-18; for TNF-α: nl: 0-22; for IL-1β: nl: 0-36; for IL-2R: nl: 0-1033
# Text: One of these patients was the same patient previously utilized, while the other was relatively neve to any previous Fibrinopeptide A treatment. The patient had taken two doses orally approximately seven weeks prior to this treatment, no lab work had been obtained with this prior dosing. […] This again elucidates the lack of effect of Fibrinopeptide A when given IV and the importance of utilizing a lymphatic route when treating with Fibrinopeptide A, and probably the others as well. [table] The data in table 6 further illustrates the up regulation of all aspects of the immune system in response to this persistent exposure to synthetic activated fibrinopeptide A through a lymphatic administration.
# [3] = 2 weeks back on FPA (different carrier)
sequence,measurement,setting,value
ADSGEGDFLAEGGGV (listed as Homo sapiens) [Fibrinopeptide A],IFN-γ,[1]; Off 1 Week,5
same,IL-4,[1]; Off 1 Week,<5
same,IL-5,[1]; Off 1 Week,5
same,IL-6,[1]; Off 1 Week,5
same,IL-8,[1]; Off 1 Week,8
same,IL-13,[1]; Off 1 Week,8
same,IL-12,[1]; Off 1 Week,6
same,IL-2,[1]; Off 1 Week,6
same,IL-10,[1]; Off 1 Week,28
same,TNF-α,[1]; Off 1 Week,<5
same,IL-1β,[1]; Off 1 Week,<5
same,IL-2R,[1]; Off 1 Week,147
same,elevation of Interleukin-13,[1]; giving just Fibrinopeptide A,does not result in an elevation
same,IFN-γ,"[1]; oral daily 3 mg, 1 Week",<5
same,IL-4,"[1]; oral daily 3 mg, 1 Week",<5
same,IL-5,"[1]; oral daily 3 mg, 1 Week",<5
same,IL-6,"[1]; oral daily 3 mg, 1 Week",<5
same,IL-8,"[1]; oral daily 3 mg, 1 Week",<5
same,IL-13,"[1]; oral daily 3 mg, 1 Week",<5
same,IL-12,"[1]; oral daily 3 mg, 1 Week",<5
same,IL-2,"[1]; oral daily 3 mg, 1 Week",<5
same,IL-10,"[1]; oral daily 3 mg, 1 Week",137
same,TNF-α,"[1]; oral daily 3 mg, 1 Week",<5
same,IL-1β,"[1]; oral daily 3 mg, 1 Week",30
same,IL-2R,"[1]; oral daily 3 mg, 1 Week",423
same,IFN-γ,[2]; 2 Weeks off FPA,<5
same,IL-4,[2]; 2 Weeks off FPA,<5
same,IL-5,[2]; 2 Weeks off FPA,6
same,IL-6,[2]; 2 Weeks off FPA,66
same,IL-8,[2]; 2 Weeks off FPA,8
same,IL-13,[2]; 2 Weeks off FPA,8
same,IL-12,[2]; 2 Weeks off FPA,6
same,IL-2,[2]; 2 Weeks off FPA,7
same,IL-10,[2]; 2 Weeks off FPA,230
same,TNF-α,[2]; 2 Weeks off FPA,<5
same,IL-1β,[2]; 2 Weeks off FPA,37
same,IL-2R,[2]; 2 Weeks off FPA,255
same,IFN-γ,[2]; [3],5
same,IL-4,[2]; [3],<5
same,IL-5,[2]; [3],6
same,IL-6,[2]; [3],63
same,IL-8,[2]; [3],8
same,IL-13,[2]; [3],9
same,IL-12,[2]; [3],6
same,IL-2,[2]; [3],7
same,IL-10,[2]; [3],204
same,TNF-α,[2]; [3],<5
same,IL-1β,[2]; [3],48
same,IL-2R,[2]; [3],268
same,IFN-γ,"[2]; oral, 1 Week",<5
same,IL-4,"[2]; oral, 1 Week",<5
same,IL-5,"[2]; oral, 1 Week",<5
same,IL-6,"[2]; oral, 1 Week",<5
same,IL-8,"[2]; oral, 1 Week",<5
same,IL-13,"[2]; oral, 1 Week",<5
same,IL-12,"[2]; oral, 1 Week",<5
same,IL-2,"[2]; oral, 1 Week",<5
same,IL-10,"[2]; oral, 1 Week",141
same,TNF-α,"[2]; oral, 1 Week",<5
same,IL-1β,"[2]; oral, 1 Week",30
same,IL-2R,"[2]; oral, 1 Week",504
same,IFN-γ,"[2]; oral, 2 weeks",5
same,IL-4,"[2]; oral, 2 weeks",<5
same,IL-5,"[2]; oral, 2 weeks",5
same,IL-6,"[2]; oral, 2 weeks",77
same,IL-8,"[2]; oral, 2 weeks",8
same,IL-13,"[2]; oral, 2 weeks",6
same,IL-12,"[2]; oral, 2 weeks",6
same,IL-2,"[2]; oral, 2 weeks",7
same,IL-10,"[2]; oral, 2 weeks",183
same,TNF-α,"[2]; oral, 2 weeks",<5
same,IL-1β,"[2]; oral, 2 weeks",83
same,IL-2R,"[2]; oral, 2 weeks",254
